Source: paper PMC10846744, “Cathelicidin peptide analogues inhibit EV71 infection through blocking viral entry and uncoating” (PLOS Pathogens, 2024)
Where no end group is shown, it is not given here.

How the values were obtained:
EV71 virions = assay: Viral particle ultracentrifugation (uncoating with SCARB2 at pH 5.5); set-up: species or system enterovirus 71 (EV71); conditions: EV71 MOI = 10, 1.5 μg SCARB2, pH 5.5, 37°C 2 hrs, iodoxanol gradient ultracentrifugation, immunoblotting
Method: Fig 6 LL-18 stabilizes the viral particles by inhibiting uncoating. (A) EV71 virus (MOI = 10) was pre-incubated with PBS, indicated amount of LL-18 or NaCl for 1 hr and then mixed with SYBR green dyes II before they were heated to indicated temperatures. The fluorescent signals were measured and plotted against temperature. PBS was used as a negative control. (B) EV71 virus (MOI = 10) was pre-incubated with PBS, LL-18, or 12s for 2 hrs. Half of the samples were then treated with 1.5 μg SCARB2 protein and incubated at 37°C for 2 hrs at pH 5.5. Samples were then subjected to ultracentrifugation as detailed in materials and methods. The numbers above represent the fractions collected from top to bottom.
EV71 viruses were pre-incubated with either PBS, 12s, or LL-18 for 1 hr. Then half the samples were treated with 1.5 μg purified SCARB2 protein (Sino Biological, China) with pH adjusted to 5.5. The samples were incubated at 37°C for 2 hrs to simulate the virus uncoating environment. Viral particles were then loaded onto iodoxanol gradients (0% 500 μL, 21% 1 mL, 27% 1 mL, 33% 1 mL, 39% 1 mL) and ultra-centrifuged at 4°C, 45000 rpm for 1.5 hrs. 7 fractions were collected from the top, and samples were precipitated with Trichloroacetic acid (TCA) before being analyzed with immunoblotting.

EV71 P30 virus = assay: Resistance induction assay (30 passages); type: cell-based, enterovirus 71 (EV71); conditions: 20 passages at 0.9 μM then 10 at 1.5 μM LL-18; 1.5 μM LL-18 pre-incubation 1 h, RD cell viability 24 h.p.i
Method: (A) Diagram of resistance induction assay. (B) RD cells infected with parental EV71 or P30 with or without 1.5 μM LL-18 pre-incubation were tested for cell viability 24 h.p.i. ns, not significant; ***, P<0.001.
Resistance induction assay was conducted as previously reported. Briefly, virus was first successively passaged in RD cells for 20 generations in the presence of a lower concentration of LL-18 (0.9 μM). The progeny virus was then passaged for another 10 generations with 1.5 μM LL-18, and the progeny virus was designated as P30. The parental EV71 and P30 with the same titer were pre-incubated with 1.5 μM LL-18 for 1 h and then tested for cell viability 24 h.p.i.

Sequence: FRKSKEKIGKLFKRIVQRILDFLRNLV [LL-18]
- inhibition of uncoating (VP1 distribution in density gradient fractions) (EV71 virions): remained in the higher density fractions
- susceptibility of P30 virus to LL-18 (EV71 P30 virus): still as susceptible to LL-18 as the parental virus
